Assay results published in patent publication US8642284B1, “Methods for identifying agents that alter NAD-dependent deacetylation activity of a SIR2 protein” (Massachusetts Institute of Technology, priority 1999, dated 2014).
Entries after “also recorded” stand apart in the source; their conditions may differ.

What was measured:
[1] = biological target: T1, Sir2p (Saccharomyces cerevisiae, UniProt P06700); assay: ADP-ribosylation and NAD hydrolysis by recombinant yeast Sir2p (intact histone H3, H3 peptide; SDS-PAGE, TLC); assay type: biochemical; settings: 200 μM; for inhibition of NAD hydrolysis by Sir2p: H3 peptide, TLC; for inhibition of ADP-ribosylation by Sir2p: intact histone H3 and H3 peptide
T1 construct: purified recombinant yeast (rSir2p) protein, mouse Sir2 (mSir2α) proteins and vector controls; 6×His; made in house; host or cells: E. coli BL21 (DE3), pET28a
Description: (§1) The typical reaction was performed in 50 or 100 μl of the buffer containing 5 mM Tris-HCl [pH8.0 or 9.0], 4 mM MgCl2, 0.2 mM DTT, 1 μM cold β-NAD^+ (SIGMA®) and 8 μCi nicotinamide adenine dinucleotide 5′[α-^32P]triphosphate (NAD) as a donor of ADP-ribose (˜1000 Ci/mmol, Amersham Pharmacia Biotech). To check the sensitivity to poly- or mono-ADP-ribosylation inhibitors, 3-aminobenzamide (ICN Pharmaceuticals, CA), benzamide, novobiocin and coumermycin A1 (SIGMA®) were added to the reactions prior to adding Sir2 proteins, respectively. The wild type or mutant recombinant proteins (0.5-1 μg for ySir2p and 10 μg of mSir2α) were added with 4 μg of each histone purchased from Roche Molecular Biochemicals (Indianapolis, Ind.). For the peptide experiments, 5-10 μg of unacetylated or acetylated N-terminal tail peptides (amino acids 1-20) of H3 and H4 purchased from Upstate Biotechnology™ (Lake Placid, N.Y.) were used as substrates of the yeast and mouse Sir2 recombinant proteins.
(§2) The typical reaction of Sir2 deacetylase activity was performed in 50 μl of buffer containing 50 mM Tris-HCl [pH 9.0], 4 mM MgCl2, 0.2 mM DTT, variable concentration of cold nicotinamide adenine dinucleotide (NAD) or NAD derivatives (SIGMA®, MO), 5-10 μg of the purified recombinant Sir2 proteins, and 10 μg of the histone H3 N-terminal tail peptide (amino acid 1-20) di-acetylated at positions 9 and 14 (Upstate Biotechnology™, NY). […] To detect the ADP-ribosylation activity, 8 μCi of NAD 5′-[α-^32P]triphosphate (˜1000 Ci/mmol, Amersham Pharmacia Biotech™, NJ) was added to the same reaction containing 1 μM cold NAD. Histone H3 protein (4 μg) (Roche Molecular Biochemicals™, IN) were used for this assay. All reaction mixtures were incubated at room temperature for 1 hr. Trichostatin A and coumermycin A1 (SIGMA™) were prepared in dimethylsulfoxide (DMSO, SIGMA®), and 5 μl of solvent or inhibitor was added to the reactions prior to adding Sir2 proteins.
Electron-spray mass spectroscopy (also referred to herein as mass spectroscopy) was done on the PE Sciex Model API365™ system. Matrix assisted laser desorption/ionization (MALDI) mass spectroscopy can also be used. The electron-spray mass spectroscopy data were analyzed by the BioMultiView Program™ (version 1.3.1). To detect the ADP-ribosylated intact H3 protein, the pellets were dissolved in 15 μl of Leammli sample buffer, boiled for 1.5 min and electrophoresed in a 10-20% gradient SDS-PAGE gel. The gel was stained with Coomassie Brilliant Blue to check equal loading of histones, dried, and exposed to KODAK® X-OMAT film. […]
The effects of a known inhibitor of mono-ADP-ribosyltransferases, coumermycin A1 (Banasik, M., et al., Mol. Cell. Biochem. 138: 185-187 (1994)) was evaluated. […]

[2] = biological target: T2, mSir2α (Mus musculus, UniProt Q923E4); assay: ADP-ribosylation assay, sensitivity of mSir2α to poly- and mono-ADP-ribosylation inhibitors (histone H2B, 32P-NAD); assay type: biochemical; settings: 40 μM
T2 construct: ADP-ribosylase activity of bacterial recombinant full-length proteins of ySir2p and mSir2α was determined in in vitro assays; 6×His; made in house; host or cells: E. coli BL21 (DE3) pLysS with an extra copy of arginine tRNA gene, pET28a
T2 sequence (Q923E4 1-737): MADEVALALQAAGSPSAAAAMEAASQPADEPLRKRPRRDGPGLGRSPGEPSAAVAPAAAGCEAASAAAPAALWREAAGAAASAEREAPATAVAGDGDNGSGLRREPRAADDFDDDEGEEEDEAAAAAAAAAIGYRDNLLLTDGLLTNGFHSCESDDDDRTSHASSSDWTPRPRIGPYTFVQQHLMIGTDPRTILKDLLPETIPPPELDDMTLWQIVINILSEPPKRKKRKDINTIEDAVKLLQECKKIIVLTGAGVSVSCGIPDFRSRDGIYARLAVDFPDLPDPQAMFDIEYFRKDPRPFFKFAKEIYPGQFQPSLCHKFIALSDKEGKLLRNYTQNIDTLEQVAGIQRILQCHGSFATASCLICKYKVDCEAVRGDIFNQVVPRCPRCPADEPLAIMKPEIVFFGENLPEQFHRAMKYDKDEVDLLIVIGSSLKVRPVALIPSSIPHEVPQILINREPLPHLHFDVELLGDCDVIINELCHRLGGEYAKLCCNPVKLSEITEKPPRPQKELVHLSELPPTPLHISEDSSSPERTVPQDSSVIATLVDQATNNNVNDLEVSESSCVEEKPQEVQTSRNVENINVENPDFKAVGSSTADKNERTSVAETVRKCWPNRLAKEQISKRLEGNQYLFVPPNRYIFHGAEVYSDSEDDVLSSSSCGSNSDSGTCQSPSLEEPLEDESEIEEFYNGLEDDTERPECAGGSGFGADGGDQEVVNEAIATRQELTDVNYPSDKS
Description: as §1
To analyze histone modification, 25 μl of 100% trichloroacetic acid (TCA) solution was mixed to the reaction mixture and left on ice for 15 min. The protein precipitates were centrifuged at 4° C. and washed with 5 or 20% TCA solution twice. The pellets were dissolved in 15 μl of Leammli's sample buffer and boiled for 1.5 min. The proteins were electrophoresed in a 10-20% gradient SDS-PAGE gel. The gel was stained with COOMASSIE® Brilliant Blue R-250 (GibcoBRL Life Technologies™, Frederick, Md.) to check equal loading of histones, dried, and exposed to KODAK® X-OMAT film.
The sensitivity of the ADP-ribosylase activity of mSir2α to poly ADP-ribosylation inhibitors (3-aminobenzamide and benzamide) and mono-ADP-ribosylation inhibitors (novobiocin and coumermycin A1) was evaluated. (FIG. 4F).

[3] = biological target: T1, Sir2p; assay: NAD-dependent deacetylation of di-acetylated H3 peptide by recombinant yeast Sir2p (HPLC); assay type: biochemical; settings: 200 μM
Description: as §2
After the incubation, the products were precipitated at −20° C. overnight by adding 50 μl of distilled water and 25 μl of 100% trichloroacetic acid (TCA) solution. For high pressure liquid chromatography (HPLC), the precipitates were reconstituted in 5% CH3CN and 0.1% trifluoroacetic acid (TFA) and run in the gradient concentration between 0.05% TFA and 0.043% TFA plus 80% CH3CN on Hewlett Packard Model 1100 HPLC system with 214TP52 column (VYDAC, CA). The chromatograms at the absorbance of 210 nm were digitally recorded and analyzed by Hewlett Packard ChemStation™ system (version A.06.03 [509]). Fractions of samples were collected every 1 min by Gilson™ Fraction Collector Model 203. Peptide sequencing was done by the Applied Biosystems PROCISE® 494 HT protein sequencing system. PTH amino acid chromatograms were recorded and analyzed by the ABI Model 610A2.1 data integration/analysis system.
The experiments employed purified recombinant Sir2p in a reaction with NAD and a peptide of the histone H3 amino-terminal tail (residues 1-20) di-acetylated at lysines 9 and 14. These lysines are hypoacetylated in silenced chromatin and mutations at these positions to glycine greatly reduce silencing in vivo (Thompson, J. S., et al., Nature 369: 245-247 (1994)). The products of a reaction containing 5 μg of recombinant yeast Sir2p (79 pmoles) (FIG. 8a), 10 μg of the H3 peptide (4.2 nmoles) increasing concentrations of NAD were analyzed s by high pressure liquid chromatography (HPLC).

[4] = test system: mono-ADP-ribosyltransferases; settings: literature value; read-out: reported IC50 concentration; cited from earlier work

T1 sequence (P06700 whole entry): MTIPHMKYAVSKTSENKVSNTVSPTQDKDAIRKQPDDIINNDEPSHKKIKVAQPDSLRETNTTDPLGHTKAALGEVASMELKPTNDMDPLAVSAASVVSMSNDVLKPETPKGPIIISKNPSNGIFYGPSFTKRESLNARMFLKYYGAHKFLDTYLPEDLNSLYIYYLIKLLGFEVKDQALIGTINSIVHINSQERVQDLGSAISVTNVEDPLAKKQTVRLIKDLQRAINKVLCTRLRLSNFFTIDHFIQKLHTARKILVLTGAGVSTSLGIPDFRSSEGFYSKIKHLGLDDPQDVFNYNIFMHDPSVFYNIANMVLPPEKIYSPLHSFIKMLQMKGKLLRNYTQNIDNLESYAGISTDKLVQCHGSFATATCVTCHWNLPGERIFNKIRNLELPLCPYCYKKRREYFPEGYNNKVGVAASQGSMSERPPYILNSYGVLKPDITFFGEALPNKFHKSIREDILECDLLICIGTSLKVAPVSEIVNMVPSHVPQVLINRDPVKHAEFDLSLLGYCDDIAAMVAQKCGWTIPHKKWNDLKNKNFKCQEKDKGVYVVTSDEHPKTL

For CO[C@H]1[C@H](OC(=O)c2ccc(C)[nH]2)[C@H](O)[C@@H](Oc2ccc3c(O)c(NC(=O)c4c[nH]c(C(=O)Nc5c(O)c6ccc(O[C@H]7OC(C)(C)[C@@H](OC)[C@H](OC(=O)c8ccc(C)[nH]8)[C@@H]7O)c(C)c6oc5=O)c4C)c(=O)oc3c2C)OC1(C)C [coumermycin A1], the “inhibition of NAD hydrolysis by Sir2p” value [1] was “inhibited”, the “inhibition of NAD hydrolysis by Sir2p” value ([1]; listed as Coumermycin A1) was “inhibit” and the “inhibition of ADP-ribosylation by Sir2p” value [1] was “inhibited”. The “inhibition of ADP-ribosylation by Sir2p” value ([1]; listed as Coumermycin A1) was “inhibit”, the “inhibition of ADP-ribosylation by mSir2α” value [2] was “strongly inhibited” and the “inhibition of deacetylation of the H3 tail by Sir2p” value [3] was “did not inhibit; also recorded: not capable of inhibiting”. The IC50 [4] was 27 µM.
